From article PMC5601486, “Identification of 4-phenylquinolin-2(1H)-one as a specific allosteric inhibitor of Akt” (Scientific Reports, 2017)

Legend:
Experiment in all cases: KINOMEscan
Settings in all cases: 50000 nM
PFCDPK1(P.falciparum) = tested on: T1, PFCDPK1(P.falciparum); type: binding
T1 construct: purchased DiscoveRx KINOMEscan

AKT1 = tested on: AKT1
Protocol: KINOMEscan™ selectivity screen
(§1) The assay was perfor med at DiscoveRx Corporation according the methods published previously5. Briefly, Kinase-tagged T7 phage strains were grown in parallel in an E. coli host derived from the BL21 strain. E. coli were grown to log-phase and infected with T7 phage from a frozen stock and incubated with shaking at 32°C until lysis (90-150 minutes). The kinases were produced in HEK-293 cells and subsequently tagged with DNA for qPCR detection. Streptavidin-coated magnetic beads were treated with biotinylated small molecule ligands to generate affinity resins for kinase
(§2) inhibitor or DMSO control was performed in polypropylene 384-well plates for 1 hr at room temperature. After wash with PBS buffer containing 0.05% Tween 20, the beads were incubated in elution buffer (PBS containing 0.05 % Tween 20 and 0.5 μM non-biotinylated affinity ligand) for 30 minutes at room temperature. The kinase concentration in the eluates was measured by qPCR.

PIK3C2B = tested on: PIK3C2B
Protocol: KINOMEscan™ selectivity screen
(§3) Briefly, Kinase-tagged T7 phage strains were grown in parallel in an E. coli host derived from the BL21 strain. E. coli were grown to log-phase and infected with T7 phage from a frozen stock and incubated with shaking at 32°C until lysis (90-150 minutes). The kinases were produced in HEK-293 cells and subsequently tagged with DNA for qPCR detection. Streptavidin-coated magnetic beads were treated with biotinylated small molecule ligands to generate affinity resins for kinase
as §2

PIK3CA(E545A) = tested on: PIK3CA(E545A)
Protocol: KINOMEscan™ selectivity screen
as §3, §2

PRKCD = tested on: PRKCD
Protocol: KINOMEscan™ selectivity screen
as §1, §2

YANK2 = tested on: YANK2
Protocol: KINOMEscan™ selectivity screen
as §3, §2

ALK = tested on: ALK
Protocol: KINOMEscan™ selectivity screen
as §1, §2

TNNI3K = tested on: TNNI3K
Protocol: KINOMEscan™ selectivity screen
as §1, §2

EPHA4 = tested on: EPHA4
Protocol: KINOMEscan™ selectivity screen
as §3, §2

PYK2 = tested on: PYK2
Protocol: KINOMEscan™ selectivity screen
Briefly, Kinase-tagged T7 phage strains were grown in parallel in an E. coli host derived from the BL21 strain. E. coli were grown to log-phase and infected with T7 phage from a frozen stock and incubated with shaking at 32°C until lysis (90-150 minutes). The kinases were produced in HEK-293 cells and subsequently tagged with DNA for qPCR detection.
After wash with PBS buffer containing 0.05% Tween 20, the beads were incubated in elution buffer (PBS containing 0.05 % Tween 20 and 0.5 μM non-biotinylated affinity ligand) for 30 minutes at room temperature. The kinase concentration in the eluates was measured by qPCR.

FRK = tested on: FRK
Protocol: KINOMEscan™ selectivity screen
as §1, §2

MAP4K3 = tested on: MAP4K3
Protocol: KINOMEscan™ selectivity screen
as §1, §2

FGR = tested on: FGR
Protocol: KINOMEscan™ selectivity screen
as §1, §2

MARK4 = tested on: MARK4
Protocol: KINOMEscan™ selectivity screen
as §1, §2

ERBB4 = tested on: ERBB4
Protocol: KINOMEscan™ selectivity screen
as §1, §2

JNK3 = tested on: JNK3
Protocol: KINOMEscan™ selectivity screen
as §1, §2

ALK(L1196M) = tested on: ALK(L1196M)
Protocol: KINOMEscan™ selectivity screen
as §1, §2

MRCKB = tested on: MRCKB
Protocol: as §3, §2

SRPK2 = tested on: SRPK2
Protocol: KINOMEscan™ selectivity screen
(§4) The assay was perfor med at DiscoveRx Corporation according the methods published previously5. […] The kinases were produced in HEK-293 cells and subsequently tagged with DNA for qPCR detection. Streptavidin-coated magnetic beads were treated with biotinylated small molecule ligands to generate affinity resins for kinase
as §2

TIE1 = tested on: TIE1
Protocol: KINOMEscan™ selectivity screen
as §4, §2

BMPR1B = tested on: BMPR1B
Protocol: KINOMEscan™ selectivity screen
as §1, §2

PIP5K2C = tested on: PIP5K2C
Protocol: KINOMEscan™ selectivity screen
as §3, §2

PLK3 = tested on: PLK3
Protocol: KINOMEscan™ selectivity screen
as §3, §2

PAK1 = tested on: PAK1
Protocol: KINOMEscan™ selectivity screen
as §1, §2

PIK3CA = tested on: PIK3CA
Protocol: KINOMEscan™ selectivity screen
as §1, §2

PRKD2 = tested on: PRKD2
Protocol: KINOMEscan™ selectivity screen
as §1, §2

RIPK2 = tested on: RIPK2
Protocol: KINOMEscan™ selectivity screen
as §1, §2

ABL1-nonphosphorylated = tested on: ABL1-nonphosphorylated
Protocol: KINOMEscan™ selectivity screen
as §1, §2

CSNK1A1L = tested on: CSNK1A1L
Protocol: KINOMEscan™ selectivity screen
as §1, §2

LCK = tested on: LCK
Protocol: KINOMEscan™ selectivity screen
as §1, §2

EGFR(G719C) = tested on: EGFR(G719C)
Protocol: KINOMEscan™ selectivity screen
as §3, §2

PHKG1 = tested on: PHKG1
Protocol: KINOMEscan™ selectivity screen
as §3, §2

DLK = tested on: DLK
Protocol: KINOMEscan™ selectivity screen
as §1, §2

MAK = tested on: MAK
Protocol: KINOMEscan™ selectivity screen
as §1, §2

MINK = tested on: MINK
Protocol: KINOMEscan™ selectivity screen
as §1, §2

DYRK1B = tested on: DYRK1B
Protocol: KINOMEscan™ selectivity screen
as §4, §2

MET = tested on: MET
Protocol: KINOMEscan™ selectivity screen
as §1, §2

CDK4-cyclinD3 = tested on: CDK4-cyclinD3
Protocol: KINOMEscan™ selectivity screen
as §3, §2

EGFR(E746-A750del) = tested on: EGFR(E746-A750del)
Protocol: KINOMEscan™ selectivity screen
as §3, §2

MEK5 = tested on: MEK5
Protocol: KINOMEscan™ selectivity screen
as §1, §2

IRAK4 = tested on: IRAK4
Protocol: KINOMEscan™ selectivity screen
as §3, §2

EPHA3 = tested on: EPHA3
Protocol: KINOMEscan™ selectivity screen
as §1, §2

NEK10 = tested on: NEK10
Protocol: KINOMEscan™ selectivity screen
as §1, §2

MARK2 = tested on: MARK2
Protocol: KINOMEscan™ selectivity screen
as §3, §2

CLK2 = tested on: CLK2
Protocol: KINOMEscan™ selectivity screen
as §1, §2

LRRK2(G2019S) = tested on: LRRK2(G2019S)
Protocol: KINOMEscan™ selectivity screen
as §1, §2

TNIK = tested on: TNIK
Protocol: KINOMEscan™ selectivity screen
as §3, §2

ARK5 = tested on: ARK5
Protocol: KINOMEscan™ selectivity screen
as §3, §2

MST3 = tested on: MST3
Protocol: KINOMEscan™ selectivity screen
as §1, §2

GAK = tested on: GAK
Protocol: KINOMEscan™ selectivity screen
as §4, §2

IRAK1 = tested on: IRAK1
Protocol: KINOMEscan™ selectivity screen
as §1, §2

PDGFRA = tested on: PDGFRA
Protocol: KINOMEscan™ selectivity screen
as §1, §2

SRPK1 = tested on: SRPK1
Protocol: KINOMEscan™ selectivity screen
as §1, §2

[1] = tested on: RSK1(Kin.Dom.2-C-terminal)
Protocol: KINOMEscan™ selectivity screen
as §1, §2

Oc1cc(-c2ccccc2)c2ccccc2n1 [G7, 4-phenylquinolin-2(1H)-one]
Percent Control (PFCDPK1(P.falciparum)): 83% | Percent Control (AKT1): 100% | Percent Control (PIK3C2B): 100% | Percent Control (PIK3CA(E545A)): 100% | Percent Control (PRKCD): 100% | Percent Control (YANK2): 100% | Percent Control (ALK): 95% | Percent Control (TNNI3K): 95% | Percent Control (EPHA4): 93% | Percent Control (PYK2): 93% | Percent Control (FRK): 89% | Percent Control (MAP4K3): 89% | Percent Control (FGR): 88% | Percent Control (MARK4): 88% | Percent Control (ERBB4): 86% | Percent Control (JNK3): 86% | Percent Control (ALK(L1196M)): 85% | Percent Control (MRCKB): 84% | Percent Control (SRPK2): 84% | Percent Control (TIE1): 84% | Percent Control (BMPR1B): 83% | Percent Control (PIP5K2C): 83% | Percent Control (PLK3): 83% | Percent Control (PAK1): 82% | Percent Control (PIK3CA): 82% | Percent Control (PRKD2): 82% | Percent Control (RIPK2): 82% | Percent Control (ABL1-nonphosphorylated): 81% | Percent Control (CSNK1A1L): 81% | Percent Control (LCK): 80% | Percent Control (EGFR(G719C)): 79% | Percent Control (PHKG1): 79% | Percent Control (DLK): 78% | Percent Control (MAK): 77% | Percent Control (MINK): 77% | Percent Control (DYRK1B): 76% | Percent Control (MET): 73% | Percent Control (CDK4-cyclinD3): 71% | Percent Control (EGFR(E746-A750del)): 70% | Percent Control (MEK5): 70% | Percent Control (IRAK4): 68% | Percent Control (EPHA3): 66% | Percent Control (NEK10): 66% | Percent Control (MARK2): 65% | Percent Control (CLK2): 64% | Percent Control (LRRK2(G2019S)): 63% | Percent Control (TNIK): 60% | Percent Control (ARK5): 59% | Percent Control (MST3): 59% | Percent Control (GAK): 56% | Percent Control (IRAK1): 53% | Percent Control (PDGFRA): 52% | Percent Control (SRPK1): 47% | Percent Control [1]: 39%
